According to US6461587B1, “Perfluoroalkylamides, their production and their use in diagnosis” (Schering Aktiengesellschaft, priority 1999, dated 2002):

Legend:
[1] = Retention of the opacifying metal at the injection site; assay type: in vivo; details: guinea pig, 10 μmol Gd/kg s.c.
Text: After s.c. administration of 10 μmol of total gadolinium/kg of body weight in the guinea pig paw, the retention of metal at the injection site was studied at different times.

[2] = Organ distribution of the contrast medium after s.c. administration; assay type: in vivo; details: guinea pigs, 10 μmol Gd/kg s.c., 7 days after administration
Method: After subcutaneous administration of 10 μmol of total gadolinium/kg of body weight in the hind paw of stimulated guinea pigs (complete Freund adjuvant; 0.1 ml i.m in the right and left lower leg in each case; 2 weeks before the test are administered), the retention of the metal in the […] as in the kidneys and spleen was examined 7 days administration.

[3] = Relaxivity of compounds according to the invention; assay type: physicochemical; details: 0.47 T and 37° C.
Text: Relaxivity of Compounds According to the Invention

[4] = Compatibility of compounds according to the invention (LD 50); details: in vivo
Text: Compatibility of Compounds According to the Invention

[5] = Lymph node visualization (MRT) after interstitial administration of contrast medium; assay type: in vivo; details: guinea pigs, 10 μmol of Gd/kg s.c., 15 or 30 minutes, T1-weighted gradient echo images
Method: MR images of popliteal, inguinal and iliac lymph nodes both before (Precontrast) and 15 or 30 minutes after subcutaneous administration (guinea pigs, hind paw, interdigital space) of the substance of Example 5e or of Example 3c (in each case 10 μmol of Gd/kg of body weight) were taken.

[6] = Blood level and pharmacokinetics after intravenous administration, in vivo comparison with Dy-DTPA; details: rats, i.v. 100 μmol/kg; for Vd ss / α-t½ / β-t½: n=3; for blood concentrations compared with Dy-DTPA: all examination times 1-120 minutes p.i.
Method: Three 350 g male (Schering-SPF) rats are used as test animals. 0.33-0.37 ml (in each case 100 mmol/L) of the following contrast medium solution is administered intravenously to each animal: mixture of 1 part each of a perfluoroalkyl-containing compound and the dysprosium-complex of (Dy-DTPA). The administered dose is in each case 100 μmol of Gd or Dy/kg of body weight. Via a catheter in the common carotid artery, blood samples are taken at the following times: 1, 3, 5, 10, 15, 20, 30, 45, 60, 90, 120 minutes p.i. In the blood samples that are obtained, in each case the concentrations of gadolinium (Gd) and dysprosium (Dy) are measured in parallel using atomic emission spectrometry (ICP-AES). The proportion of the injected compounds (Gd-containing perfluoroalkyl-containing compound and Dy-containing comparison substance) that remains in the blood space can be compared in the same animal by the different labeling. The α- and β-half life, the distribution volume and the total clearance can be calculated from the blood concentrations using special software (Topfit program). […]

[7] = Table 2: plasma, mixture of 4c and Dy-DTPA
[8] = Table 1: plasma, mixture of 5e and Dy-DTPA

Row | Molecule | Gadolinium Content at the Injection Site (Paw) ([1]; 30 min. p.i.) | Gadolinium Content at the Injection Site (Paw) ([1]; 90 min. p.i.) | Gadolinium Content at the Injection Site (Paw) ([1]; 7 days p.i.) | Gadolinium Content in Kidneys [2] | Gadolinium Content in Liver [2] | Gadolinium Content in Spleen [2] | R1 in Plasma [3] [L/mmol/s] | R1 in Water [3] [L/mmol/s] | LD 50 [4] | MR signal in popliteal, inguinal and iliac lymph nodes of the injected body side vs non-injected side or precontrast [5] | Vd ss [6, 7] [L/kg] | α-t½ [6, 7] [min] | β-t½ [6, 7] [min] | distribution volume compared to Dy-DTPA [6] | blood concentrations compared with Dy-DTPA [6] | Vd ss [6, 8] [L/kg] | α-t½ [6, 8] [min] | β-t½ [6, 8] [min]
1 | 1,4,7-Tris(carboxylatomethyl)-10-{(3-aza-4-oxo-hexan-5-ylic)-acid- [N-4,7,10,17-tetraoxa-14-aza-17-oxo-C20-C28-hepta-decafluoro)-heptacosyl]-amide}-1,4,7,10-tetraazacyclododecane, gadolinium complex [Example 6b] | 66.4% of dose | 26.1% of dose | 0.6% of dose | 0.1% of dose | 1.5% of dose | 0.0% of dose | 13.3 | 11.6 |  |  |  |  |  |  |  |  |  | 
2 | COCCN(CCOCCC(F)(F)C(F)(F)C(F)(F)C(F)(F)C(F)(F)C(F)(F)C(F)(F)C(F)(F)F)C(=O)CNC(=O)C(C)N1CCN(CC(=O)[O-])CCN(CC(=O)[O-])CCN(CC(=O)[O-])CC1.[Gd+3] (stereo not shown) [Example 1c] |  |  |  |  |  |  | 25.7 | 13.8 |  |  |  |  |  |  |  |  |  | 
3 | CC(C(=O)NCC(=O)N(CCOCCC(F)(F)C(F)(F)C(F)(F)C(F)(F)C(F)(F)C(F)(F)C(F)(F)C(F)(F)F)CC(O)CO)N1CCN(CC(=O)[O-])CCN(CC(=O)[O-])CCN(CC(=O)[O-])CC1.[Gd+3] (stereo not shown) [Example 2c] |  |  |  |  |  |  | 19.6 | 11.8 | 3 mmol of Gd/kg of body weight |  |  |  |  |  |  |  |  | 
4 | CC(C(=O)NCC(=O)N(CCOCCO)CCOCCC(F)(F)C(F)(F)C(F)(F)C(F)(F)C(F)(F)C(F)(F)C(F)(F)C(F)(F)F)N1CCN(CC(=O)[O-])CCN(CC(=O)[O-])CCN(CC(=O)[O-])CC1.[Gd+3] (stereo not shown) [Example 3c] | 6.5% of dose | 4.9% of dose | 1.7% of dose | 0.1% of dose | 1.3% of dose | 0.0% of dose | 21.0 | 14.0 | 8 mmol of Gd/kg of body weight | strong signal increase |  |  |  |  |  |  |  | 
5 | CC(C(=O)NCC(=O)N(CCO)CCOCCC(F)(F)C(F)(F)C(F)(F)C(F)(F)C(F)(F)C(F)(F)C(F)(F)C(F)(F)F)N1CCN(CC(=O)[O-])CCN(CC(=O)[O-])CCN(CC(=O)[O-])CC1.[Gd+3] (stereo not shown) [Example 4c] |  |  |  |  |  |  | 21.9 | 14.4 | 0.3 mmol of Gd/kg of body weight |  | 0.12 ± 0.00 | 1.01 ± 0.32 | 79.68 ± 12.26 | significantly smaller distribution volume | significantly higher blood concentrations |  |  | 
6 | COCCOCCOCCOCCOCCN(CCOCCC(F)(F)C(F)(F)C(F)(F)C(F)(F)C(F)(F)C(F)(F)C(F)(F)C(F)(F)F)C(=O)CNC(=O)C(C)N1CCN(CC(=O)[O-])CCN(CC(=O)[O-])CCN(CC(=O)[O-])CC1.[Gd+3] (stereo not shown) [Example 5e] | 8.5% of dose | 9.4% of dose |  |  |  |  | 30.3 | 12.4 | 15 mmol of Gd/kg of body weight | strong signal increase |  |  |  | significantly smaller distribution volume | significantly higher blood concentrations | 0.16 ± 0.03 | 3.77 ± 0.75 | 102.29 ± 24.48
7 | CC(C(=O)NCC(=O)NCCOCCC(F)(F)C(F)(F)C(F)(F)C(F)(F)C(F)(F)C(F)(F)C(F)(F)C(F)(F)F)N1CCN(CC(=O)[O-])CCN(CC(=O)[O-])CCN(CC(=O)[O-])CC1.[Gd+3] (stereo not shown) [Example 7, 1,4,7-Tris(carboxylatomethyl)-10-[-(3-aza-4-oxo-hexan-5-ylic)-acid-N-(1H,1H,2H,2H,4H,4H,5H,5H-3-oxa-perfluorotridecyl)-amide]-1,4,7, 10-tetraaza-cyclododecane, gadolinium complex] | 54.2% of dose | 36.8% of dose | 1.3% of dose | 0.2% of dose | 6.2% of dose | 0.0% of dose | 21.0 | 18.1 |  |  |  |  |  |  |  |  |  | 
8 | CC(C(=O)NCC(=O)NCCNS(=O)(=O)C(F)(F)C(F)(F)C(F)(F)C(F)(F)C(F)(F)C(F)(F)C(F)(F)C(F)(F)F)N1CCN(CC(=O)[O-])CCN(CC(=O)[O-])CCN(CC(=O)[O-])CC1.[Gd+3] (stereo not shown) [Example 10c, 1,4,7-Tris(carboxylatomethyl)-10-{(3-aza-4-oxo-hexan-5-ylic)-acid-N-[(2-perfluorooctylsulfonylamino)-ethyl]-amide}-1,4,7,10-tetraazacyclododecane, gadolinium complex] |  |  |  |  |  |  | 27.8 | 21.6 |  |  |  |  |  |  |  |  |  | 
9 | Dy-DTPA [reference compound] |  |  |  |  |  |  |  |  |  |  | 0.15 ± 0.03 | 0.89 ± 0.32 | 21.37 ± 2.18 |  |  | 0.29 ± 0.09 | 2.19 ± 0.59 | 62.59 ± 37.47
